Reference: paper PMC9865040, “Design of A3B-Porphyrin Conjugates with Terpyridine as Potential Theranostic Agents: Synthesis, Complexation with Fe(III), Gd(III), and Photodynamic Activity” (Pharmaceutics, 2023)
Values belong to the compound of their own block, whether it stands above or below them.

Legend:
[1] = Aggregation behaviour, UV-vis absorption and fluorescence spectra in DMF and aqueous solubiliser solutions; assay type: physicochemical
Description: Aggregation behavior, photophysical characterization and solubilisation studies. Photophysical properties of zinc complexes of amphiphilic meso-arylporphyrins and their conjugates with terpyridine were studied in DMF and aqueous solutions of different solubilisers. Stock solutions of 1 mM of the studied compounds in DMF were added upon stirring to a micellar aqueous solution of a solubiliser (3 mL). The final concentration of the porphyrins was 3.5 µM. UV-vis absorption spectra were recorded using HACH DR-4000V spectrophotometer (Hach-Lange, Loveland, CO, USA) within the wavelength range of 320–800 nm with a step of 1 nm in quartz cells (10 mm) at room temperature. Steady-state fluorescence spectra were recorded using Perkin Elmer LS-50 (USA) luminescent spectrometer under similar conditions with the Soret band maximum excitation. Fluorescence quantum yields (ΦF) for Zn(II) complexes in DMF were measured according to the procedure using ZnTPP as a standard (ΦF = 0.033).

[2] = Singlet oxygen quantum yield, DPBF oxidation in DMF, ZnTPP as standard; assay type: physicochemical; conditions: air-saturated, λ ≥ 500 nm
Text: Photochemical experiments for singlet oxygen quantum yield determination. Porphyrin-containing samples were irradiated in quartz cells at room temperature in air-saturated DMF solutions. Light source consisted of halogen lamp (150 W), thermal and UV filters, a three-lens spherical condenser with a reflector, and a cut-off filter (λ ≥ 500 nm). The light flux power was 10 mW/cm^2. The efficiency of photosensitised ^1O2 generation in porphyrin solutions was estimated from the dynamics of the absorbance decrease at 415 nm, corresponding to the absorption maximum of the selective ^1O2 acceptor-1,3-diphenylisobenzofuran (DPBF). DPBF was added to the solution of the tested compound in the dark immediately before the start of the photochemical experiment (CDPBF = 0.1 mM). […] The singlet oxygen quantum yield (ΦΔ) were calculated according to the known procedure with ZnTPP being a standard (ΦΔ = 0.74 in DMF).

[3] = test system: Hep2 cell line (human laryngeal cancer); test: Cell viability study (MTT-test) with and without irradiation; assay type: cell-based
Description: (§1) Biological activity. Cell viability study (MTT-test) on Hep2 (human laryngeal cancer) and NKE (normal kidney epithelial) cell lines. For this study, cells were plated into 96-well plates (BD Micro-FinePlus, Franklin Lakes, USA) (6 × 10^3 cells in 180 μL of culture medium) and incubated for 24 h at 37 °C in 5% CO2. The medium was standard DMEM (PanEco, Moscow, Russia) with penicillin-streptomycin (50 units/mL) (PanEco, Moscow, Russia) supplemented with 10% fetal bovine serum (PanEco, Russia). After this time, culture medium was replaced with a similar volume of Hanks’ solution (PanEco, Russia) with glucose added at a final concentration of 4.5 mg/mL. On the day of the experiment, serial dilutions of the compound in deionised water were made and 20 μL was added to the cell culture. The cell culture thus obtained was irradiated for 90 min using a Medical Therapy Philips TL 20W/52 lamp (wavelength 400–500 nm), power 2.3 mW. In parallel, the cell culture was incubated with the compound in the dark. After 90 min, in both cases, Hanks’ solution with the compound was replaced with DMEM medium without serum. The cell culture was then left for 24 h at 37 °C in 5% CO2 in the dark, after which 10 μL of MTT reagent solution (5 mg/mL, PanEco, Russia) was added and incubated for another 3.5 h. The formed formazan in cells was dissolved in 100 μL DMSO. The optical density of the solution was measured on a MultiScan MCC 340 spectrophotometer (Labsystems, Kennett Square, PA, USA) at 540 nm. Each series of experiments was repeated 3 times. […] Statistical processing of the obtained data was performed using Excel program package (Microsoft).
(§2) Cell viability study (MTT-test). The cytotoxicity of compounds 12 and 14 was studied on a Hep2 cell line (human laryngeal cancer) and NKE (human normal kidney epithelial), with and without irradiation. Two approaches were used when treating the cells. In the first case, compounds 12 and 14 were introduced into the cell culture only for the irradiation time (90 min). After that, the cell medium containing one of the compounds was removed. The cells were incubated in a fresh DMEM medium without compounds for a further 24 h, after which time the results were evaluated. The IC50 values were close for both cell lines (Table 4, Figure 5 and Figure S58). […] The results for the NKE cell line are presented in Table 4 and Figure S58 (Supporting Information).
(§3) In the second series of experiments, cell viability was evaluated 24 h after irradiation without removing the compound from the culture medium.

[4] = test system: NKE (human normal kidney epithelial) cell line; test: as above; assay type: cell-based
Description: as §1, §2, §3

[5] = Aggregation behaviour, UV-vis absorption and fluorescence spectra in DMF and aqueous solubiliser solutions; assay type: physicochemical; conditions: DMSO
[6] = standard; cited from earlier work
[7] = set-up: method as in PMID 17020252, PMID 24063545, doi:10.1002/(SICI)1099-1409(199803/04)2:2<145::AID-JPP60>3.0.CO; conditions: in DMF, standard; cited from earlier work
[8] = test system: NKE cells (human kidney epithelium); test: Comet assay (DNA damage test); assay type: cell-based; conditions: 1 μg/mL, 24 h, positive control
Description: Comet assay. NKE cells (human kidney epithelium) were seeded into 24-well plates at 8 × 10^4 per well and incubated in DMEM medium (PanEco, Russia) with penicillin-streptomycin (50 units/mL) (PanEco, Russia) and 10% fetal bovine serum (PanEco, Russia) at 37 °C in 5% CO2. After 24 h, the medium was changed to a similar one but without serum to avoid interaction of the studied substance with it. […] Cells serving as positive controls were treated with ifosfamide (Baxter Oncology, Germany) at a final concentration of 1 μg/mL. Cell culture with the substances was left for 24 h at 37 °C in 5% CO2. Once this time was reached, the cells were removed from the substrate and washed twice with phosphate-salt buffer (PBS). Direct Comet assay was performed using OxiSelect™ Comet Assay Kit (Cell Biolabs, USA) according to the manufacturer’s protocol. Samples were stained with fluorescent dye Sybr Gold, Invitrogene, USA, and examined with a Zeiss microscope using a filter for FITC-fluorescence. All necessary measurements were performed using the computer program CometScore2.0. Statistics were calculated using Student’s t-test using the Microsoft Excel software package.
During the study, the NKE cells were seeded in 24-well plates. […] After this time, the assay itself was performed using OxiSelect™ Comet Assay Kit (Cell Biolabs, San Diego, CA, USA). […]

- solubilisation ([1]; 0.5 mM Tween-80, 1% Cremophor EL and 1% Pluronic F-127): partial solubilisation
- lgε ([1]; Brij-58 (0.5 mM)): 5.15
- ΔλB (half-width of the Soret band) ([1]; Brij-58 (0.5 mM)): 28 nm
- λem, second band ([1]; Brij-58 (0.5 mM)): 660 nm
- lgε ([1]; Cremophor (1% Cremophor EL)): 5.35
- ΔλB (half-width of the Soret band) ([1]; Cremophor (1% Cremophor EL)): 27 nm
- λem, second band ([1]; Cremophor (1% Cremophor EL)): 655 nm
- λmax ([1]; Cremophor (1% Cremophor EL)): 430
- molar absorption coefficient, times lower than for ZnTPP ([1]; DMF): 1.5 times
- λQ (first Q band) ([1]; DMF): 560 nm
- lgε ([1]; DMSO): 5.70
- ΔλB (half-width of the Soret band) ([1]; H2O): 36 nm
- λem, second band ([1]; H2O): 660 nm
- lgε ([1]; Pluronic (1% Pluronic F-127)): 5.36
- ΔλB (half-width of the Soret band) ([1]; Pluronic (1% Pluronic F-127)): 22 nm
- λem, second band ([1]; Pluronic (1% Pluronic F-127)): 658 nm
- lgε ([1]; TX-100 (1 mM)): 5.34
- ΔλB (half-width of the Soret band) ([1]; TX-100 (1 mM)): 25 nm
- lgε ([1]; Tween-80 (0.5 mM)): 5.40
- ΔλB (half-width of the Soret band) ([1]; Tween-80 (0.5 mM)): 19 nm
- singlet oxygen quantum yield [2]: about 65%
- IC50 ([3]; dark conditions, 24 h): 2550 ± 280 nM
- IC50 ([3]; light irradiation 8.073 J/cm^2, 24 h, compound not removed): 2470 ± 233 nM
- IC50 ([3]; light irradiation 90 min, 8.073 J/cm^2, compound present […] then removed, read after 24 h): 1870 ± 333 nM
- ΔλB (half-width of the Soret band) [5]: 10 nm
Structure (SMILES): CCCCCCOc1ccc(-c2c3nc(c(-c4ccc(OCCCCCC)cc4)c4ccc([n-]4)c(-c4ccc(OCc5ccc(-c6cc(-c7ccccn7)nc(-c7ccccn7)c6)cc5)cc4)c4nc(c(-c5ccc(OCCCCCC)cc5)c5ccc2[n-]5)C=C4)C=C3)cc1.[Zn+2] [compound 12]
- toxic effect without irradiation ([3]; dark, […] incubation, studied concentration range): no toxic effect
- IC50 ([4]; dark conditions, 24 h): 2440 ± 281 nM
- IC50 ([4]; light irradiation 8.073 J/cm^2, 24 h): 2570 ± 320 nM
- IC50 ([4]; light irradiation 8.073 J/cm^2, […]): 1700 ± 297 nM

Structure (SMILES): C1=Cc2nc1c(-c1ccccc1)c1ccc([n-]1)c(-c1ccccc1)c1nc(c(-c3ccccc3)c3ccc([n-]3)c2-c2ccccc2)C=C1.[Zn+2] [ZnTPP]
- fluorescence quantum yield ΦF [6]: 0.033
- singlet oxygen quantum yield ΦΔ [7]: 0.74

Structure (SMILES): O=P1(NCCCl)OCCCN1CCCl (centres unmarked) [ifosfamide]
- proportion of 'comet' cells [8]: 36.1 ± 2.14%
